According to patent publication US12152020B2, “Pesticidally active azole-amide compounds” (SYNGENTA PARTICIPATIONS AG, priority 2018, dated 2024):

Columns and labels:
Type in all cases: in vivo
[1] = tested on: Spodoptera littoralis (Egyptian Cotton Leaf Worm); experiment: Example B9: Spodoptera littoralis, cotton leaf discs sprayed, L1 larvae; conditions: foliar, 72 h, application rate of 200 ppm, five L1 larvae, 3 days after infestation, in comparison to untreated samples, read-out: control in at least one of the categories (mortality, anti-feedant effect, or growth inhibition)
Procedure: Example B9: Spodoptera littoralis (Egyptian Cotton Leaf Worm)
Cotton leaf discs were placed onto agar in 24-well microtiter plates and sprayed with aqueous test solutions prepared from 10′000 ppm DMSO stock solutions. After drying the leaf discs were infested with five L1 larvae. The samples were assessed for mortality, anti-feeding effect, and growth inhibition in comparison to untreated samples 3 days after infestation. Control of Spodoptera littoralis by a test sample is given when at least one of the categories mortality, anti-feedant effect, and growth inhibition is higher than the untreated sample.

[2] = tested on: Diabrotica balteata (Corn Root Worm); experiment: Example B1: Diabrotica balteata, maize sprouts sprayed, L2 larvae; conditions: 96 h, application rate of 200 ppm, 4 days after infestation, in comparison to untreated samples, read-out: effect in at least one of the two categories (mortality or growth inhibition)
Procedure: Example B1: Diabrotica balteata (Corn Root Worm)
Maize sprouts placed onto an agar layer in 24-well microtiter plates were treated with aqueous test solutions prepared from 10′000 ppm DMSO stock solutions by spraying. After drying, the plates were infested with L2 larvae (6 to 10 per well). The samples were assessed for mortality and growth inhibition in comparison to untreated samples 4 days after infestation.
The following compounds gave an effect of at least 80% in at least one of the two categories (mortality or growth inhibition) at an application rate of 200 ppm: • P2, P3, P4, P5, P6, P7, P8, P14, P15, P16, P17, P18, P19, P20, P21, P22, P23, P24, P25, P27, P28, P29, P30, P31, P32, P33, P34, P35

[3] = tested on: Plutella xylostella (Diamond Back Moth); experiment: Example B5: Plutella xylostella, artificial diet in 24-well plates, eggs; conditions: 192 h, application rate of 200 ppm, 8 days after infestation, in comparison to untreated samples, read-out: effect in at least one of the two categories (mortality or growth inhibition)
Procedure: Example B5: Plutella xylostella (Diamond Back Moth)
24-well microtiter plates with artificial diet were treated with aqueous test solutions prepared from 10′000 ppm DMSO stock solutions by pipetting. After drying, Plutella eggs were pipetted through a plastic stencil onto a gel blotting paper and the plate was closed with it. The samples were assessed for mortality and growth inhibition in comparison to untreated samples 8 days after infestation.
The following compounds gave an effect of at least 80% in at least one of the two categories (mortality or growth inhibition) at an application rate of 200 ppm: • P1, P2, P3, P4, P5, P7, P8, P9, P14, P15, P16, P17, P18, P21, P22, P23, P24, P25, P27, P28, P29, P30, P31, P32, P33, P34, P35, P36

[4] = tested on: Plutella xylostella (Diamondback Moth); experiment: Example B14: Plutella xylostella, artificial diet in 96-well plates, eggs; conditions: 216 h, application rate of 500 ppm, 9 days after infestation
Procedure: Example B14: Plutella xylostella (Diamondback Moth)
96-well microtiter plates containing artificial diet were treated with aqueous test solutions, prepared from 10′000 ppm DMSO stock solutions, by a liquid handling robot. After drying, eggs (˜30 per well) were infested onto a netted lid which was suspended above the diet. The eggs hatch and L1 larvae move down to the diet. The samples were assessed for mortality 9 days after infestation.
The following compounds gave an effect of at least 80% average mortality at an application rate of 500 ppm: • P2, P3, P5, P6, P7, P9, P15, P16, P17, P18, P20, P22, P24, P25, P30, P31, P32, P33, P38.

[5] = tested on: Chilo suppressalis (Striped Rice Stemborer); experiment: Example B4: Chilo suppressalis, artificial diet, L2 larvae; conditions: 144 h, application rate of 200 ppm, 6 days after infestation, in comparison to untreated samples, read-out: control in at least one of the categories (mortality, anti-feedant effect, or growth inhibition)
Procedure: Example B4: Chilo suppressalis (Striped Rice Stemborer)
24-well microtiter plates with artificial diet were treated with aqueous test solutions prepared from 10′000 ppm DMSO stock solutions by pipetting. After drying, the plates were infested with L2 larvae (6-8 per well). The samples were assessed for mortality, anti-feeding effect, and growth inhibition in comparison to untreated samples 6 days after infestation. Control of Chilo suppressalis by a test sample is given when at least one of the categories mortality, anti-feedant effect, and growth inhibition is higher than the untreated sample.

[6] = tested on: Myzus persicae (Green Peach Aphid); experiment: Example B8: Myzus persicae intrinsic activity, sucrose solution under Parafilm, 24-well; conditions: 120 h, test rate of 12 ppm, 5 days after infestation
Excerpt: Example B8: Myzus persicae (Green Peach Aphid): Intrinsic Activity
Test compounds prepared from 10′000 ppm DMSO stock solutions were applied by pipette into 24-well microtiter plates and mixed with sucrose solution. The plates were closed with a stretched Parafilm. A plastic stencil with 24 holes was placed onto the plate and infested pea seedlings were placed directly on the Parafilm. The infested plate was closed with a gel blotting paper and another plastic stencil and then turned upside down. The samples were assessed for mortality 5 days after infestation.

[7] = tested on: Myzus persicae (Green Peach Aphid); experiment: Example B13: Myzus persicae, sucrose solution under Parafilm, 96-well; conditions: 120 h, application rate of 50 ppm, 5 days after infestation
Excerpt: Example B13: Myzus persicae (Green Peach Aphid)
Test compounds prepared from 10′000 ppm DMSO stock solutions were applied by a liquid handling robot into 96-well microtiter plates and mixed with a sucrose solution. Parafilm was stretched over the 96-well microtiter plate and a plastic stencil with 96 holes was placed onto the plate. Aphids were sieved into the wells directly onto the Parafilm. The infested plates were closed with a gel blotting card and a second plastic stencil and then turned upside down. The samples were assessed for mortality 5 days after infestation.

C[C@H](NC(=O)c1cc(C(F)(F)F)cc(C(F)(F)F)c1)c1nc(OC(F)(F)F)nn1-c1ncccn1 [Compound P23, N-[(1S)-1-[2-pyrimidin-2-yl-5-(trifluoromethoxy)-1,2,4-triazol-3-yl]ethyl]-3,5-bis(trifluoromethyl)benzamide]
≥ 80%: percent control (mortality, anti-feedant effect or growth inhibition) at 200 ppm [1] | percent effect (mortality or growth inhibition) at 200 ppm [2] | percent effect (mortality or growth inhibition) at 200 ppm [3]

CC(c1nc(-c2ccccc2)nn1-c1ncccn1)N(C)C(=O)c1cc(C(F)(F)F)cc(C(F)(F)F)c1 (stereo not shown) [Compound P6, N-methyl-N-[1-(5-phenyl-2-pyrimidin-2-yl-1,2,4-triazol-3-yl)ethyl]-3,5-bis(trifluoromethyl)benzamide]
≥ 80%: percent effect (mortality or growth inhibition) at 200 ppm [2] | mortality at 500 ppm [4]

CC(=O)c1nc(C(C)NC(=O)c2cc(C(F)(F)F)cc(C(F)(F)F)c2)n(-c2ncccn2)n1 (stereo not shown) [Compound P35, N-[1-(5-acetyl-2-pyrimidin-2-yl-1,2,4-triazol-3-yl)ethyl]-3,5-bis(trifluoromethyl) benzamide]
≥ 80%: percent control (mortality, anti-feedant effect or growth inhibition) at 200 ppm [5] | percent control (mortality, anti-feedant effect or growth inhibition) at 200 ppm [1] | percent effect (mortality or growth inhibition) at 200 ppm [2] | percent effect (mortality or growth inhibition) at 200 ppm [3]

CC(c1nc(Br)nn1-c1ccccn1)N(C)C(=O)c1cc(C(F)(F)F)cc(C(F)(F)F)c1 (stereo not shown) [Compound P24, N-[1-[5-bromo-2-(2-pyridyl)-1,2,4-triazol-3-yl]ethyl]-N-methyl-3,5-bis(trifluoromethyl) benzamide]
≥ 80%: percent control (mortality, anti-feedant effect or growth inhibition) at 200 ppm [1] | percent effect (mortality or growth inhibition) at 200 ppm [2] | percent effect (mortality or growth inhibition) at 200 ppm [3] | mortality at 500 ppm [4]

CC(NC(=O)c1cc(C(F)(F)F)cc(C(F)(F)F)c1)c1nc(OCC(F)(F)F)nn1-c1ncccn1 (stereo not shown) [Compound P27, N-[1-[2-pyrimidin-2-yl-5-(2,2,2-trifluoroethoxy)-1,2,4-triazol-3-yl]ethyl]-3,5-bis(trifluoromethyl) benzamide]
≥ 80%: percent control (mortality, anti-feedant effect or growth inhibition) at 200 ppm [5] | percent control (mortality, anti-feedant effect or growth inhibition) at 200 ppm [1] | percent effect (mortality or growth inhibition) at 200 ppm [2] | percent effect (mortality or growth inhibition) at 200 ppm [3]

CC#Cc1nc(C(C)N(C)C(=O)c2cc(C(F)(F)F)cc(C(F)(F)F)c2)n(-c2ncccn2)n1 (stereo not shown) [Compound P8, N-methyl-N-[1(5-prop-1-ynyl-2-pyrimidin-2-yl-1,2,4-triazol-3-yl)ethyl]-3,5-bis(trifluoromethyl) benzamide]
≥ 80%: percent control (mortality, anti-feedant effect or growth inhibition) at 200 ppm [5] | percent effect (mortality or growth inhibition) at 200 ppm [2] | percent effect (mortality or growth inhibition) at 200 ppm [3]

CC(NC(=O)c1cc(C(F)(F)F)cc(C(F)(F)F)c1)c1nc(-c2nnco2)nn1-c1ncccn1 (stereo not shown) [Compound P30, N-[1-[5-(1,3,4-oxadiazol-2-yl)-2-pyrimidin-2-yl-1,2,4-triazol-3-yl]ethyl]-3,5-bis(trifluoromethyl)benzamide]
≥ 80%: mortality at 12 ppm [6] | percent control (mortality, anti-feedant effect or growth inhibition) at 200 ppm [5] | percent control (mortality, anti-feedant effect or growth inhibition) at 200 ppm [1] | percent effect (mortality or growth inhibition) at 200 ppm [2] | percent effect (mortality or growth inhibition) at 200 ppm [3] | mortality at 50 ppm [7] | mortality at 500 ppm [4]

CC(c1nc(SC(F)(F)F)nn1-c1ncccn1)N(C)C(=O)c1cc(C(F)(F)F)cc(C(F)(F)F)c1 (stereo not shown) [Compound P20, N-methyl-N-[1-[2-pyrimidin-2-yl-5-(trifluoromethylsulfanyl)-1,2,4-triazol-3-yl]ethyl]-3,5-bis(trifluoromethyl)benzamide]
≥ 80%: percent control (mortality, anti-feedant effect or growth inhibition) at 200 ppm [1] | percent effect (mortality or growth inhibition) at 200 ppm [2] | mortality at 500 ppm [4]

CC(NC(=O)c1cc(C(F)(F)F)cc(C(F)(F)F)c1)c1nc(Cl)nn1-c1ncccn1 (stereo not shown) [Compound P34, N-[1-(5-chloro-2-pyrimidin-2-yl-1,2,4-triazol-3-yl)ethyl]-3,5-bis(trifluoromethyl) benzamide]
≥ 80%: mortality at 12 ppm [6] | percent control (mortality, anti-feedant effect or growth inhibition) at 200 ppm [5] | percent control (mortality, anti-feedant effect or growth inhibition) at 200 ppm [1] | percent effect (mortality or growth inhibition) at 200 ppm [2] | percent effect (mortality or growth inhibition) at 200 ppm [3]

C=C(F)c1nc(C(C)N(C)C(=O)c2cc(C(F)(F)F)cc(C(F)(F)F)c2)n(-c2ncccn2)n1 (stereo not shown) [Compound P14, N-[1-[5-(1-fluorovinyl)-2-pyrimidin-2-yl-1,2,4-triazol-3-yl]ethyl]-N-methyl-3,5-bis(trifluoromethyl) benzamide]
≥ 80%: percent control (mortality, anti-feedant effect or growth inhibition) at 200 ppm [5] | percent effect (mortality or growth inhibition) at 200 ppm [2] | percent effect (mortality or growth inhibition) at 200 ppm [3] | mortality at 50 ppm [7]

CC(c1nc(C#N)nn1-c1ncccn1)N(C)C(=O)c1cc(C(F)(F)F)cc(C(F)(F)F)c1 (stereo not shown) [Compound P9, N-[1-(5-cyano-2-pyrimidin-2-yl-1,2,4-triazol-3-yl)ethyl]-N-methyl-3,5-bis(trifluoromethyl) benzamide]
≥ 80%: percent effect (mortality or growth inhibition) at 200 ppm [3] | mortality at 500 ppm [4]

CC(c1nc(S(=O)(=O)C(F)(F)F)nn1-c1ncccn1)N(C)C(=O)c1cc(C(F)(F)F)cc(C(F)(F)F)c1 (stereo not shown) [Compound P19, N-methyl-N-[1-[2-pyrimidin-2-yl-5-(trifluoromethylsulfonyl)-1,2,4-triazol-3-yl]ethyl]-3,5-bis(trifluoromethyl)benzamide]
≥ 80%: percent control (mortality, anti-feedant effect or growth inhibition) at 200 ppm [5] | percent effect (mortality or growth inhibition) at 200 ppm [2]

CC(NC(=O)c1cc(Br)cc(C(F)(F)F)c1)c1nc(Br)nn1-c1ncccn1 (stereo not shown) [Compound P31, 3-bromo-N-[1-(5-bromo-2-pyrimidin-2-yl-1,2,4-triazol-3-yl)ethyl]-5-(trifluoromethyl) benzamide]
≥ 80%: mortality at 12 ppm [6] | percent control (mortality, anti-feedant effect or growth inhibition) at 200 ppm [5] | percent control (mortality, anti-feedant effect or growth inhibition) at 200 ppm [1] | percent effect (mortality or growth inhibition) at 200 ppm [2] | percent effect (mortality or growth inhibition) at 200 ppm [3] | mortality at 500 ppm [4]
